Laboratory results taken from article PMC6697720, “Saturation of acyl chains converts cardiolipin from an antagonist to an activator of Toll-like receptor-4” (Cellular and Molecular Life Sciences: CMLS, 2019).

Tests used:
[1] = target: T1, human TLR4, MD2, and CD14 (Homo sapiens, UniProt O00206+Q9Y6Y9); experiment: NF-κB luciferase reporter activation by CLs in HEK293 cells transfected with human TLR4, MD2 and CD14; format: cell-based; conditions: for activation of human TLR4 (NF-κB): 6 h incubation
T1 construct: expressed in transfected cells; host or cells: HEK293 (ATCC CRL1573), transient transfection with jetPEI
T1 sequence (O00206 24-839): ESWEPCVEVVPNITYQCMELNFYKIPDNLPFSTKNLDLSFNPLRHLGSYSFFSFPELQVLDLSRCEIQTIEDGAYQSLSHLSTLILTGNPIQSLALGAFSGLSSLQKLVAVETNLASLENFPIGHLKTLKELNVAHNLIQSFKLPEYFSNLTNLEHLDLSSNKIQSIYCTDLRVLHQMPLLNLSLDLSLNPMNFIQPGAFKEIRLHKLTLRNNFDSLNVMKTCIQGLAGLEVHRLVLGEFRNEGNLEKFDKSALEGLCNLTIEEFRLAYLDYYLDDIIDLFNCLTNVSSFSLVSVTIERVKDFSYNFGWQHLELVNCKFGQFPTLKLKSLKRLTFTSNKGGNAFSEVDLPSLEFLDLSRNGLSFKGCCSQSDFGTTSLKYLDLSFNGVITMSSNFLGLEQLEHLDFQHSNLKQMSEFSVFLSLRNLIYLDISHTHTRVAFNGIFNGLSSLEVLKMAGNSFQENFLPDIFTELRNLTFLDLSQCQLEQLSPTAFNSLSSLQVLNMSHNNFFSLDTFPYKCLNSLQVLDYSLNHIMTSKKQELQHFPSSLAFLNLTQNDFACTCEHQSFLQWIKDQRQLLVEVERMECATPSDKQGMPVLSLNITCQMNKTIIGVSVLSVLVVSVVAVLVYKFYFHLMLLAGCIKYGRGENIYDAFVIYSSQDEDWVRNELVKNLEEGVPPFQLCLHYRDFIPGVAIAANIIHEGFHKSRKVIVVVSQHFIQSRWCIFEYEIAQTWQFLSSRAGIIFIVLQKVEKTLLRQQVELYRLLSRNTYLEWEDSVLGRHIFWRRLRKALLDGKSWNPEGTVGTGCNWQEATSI
T1 sequence (Q9Y6Y9 19-160): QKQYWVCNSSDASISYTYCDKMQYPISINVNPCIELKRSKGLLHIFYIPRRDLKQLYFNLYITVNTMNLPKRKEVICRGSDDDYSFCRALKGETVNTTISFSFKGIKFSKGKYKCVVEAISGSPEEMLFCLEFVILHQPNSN
Protocol: Cells were seeded at 4 × 10^4 cells/mL in 96-well plates (200 μL/well) and transiently transfected 4 days later. Expression vectors containing an NF-κB transcription reporter vector-encoding firefly luciferase (10 ng/well pNF-κB-luc from Clontech), and a constitutively active reporter vector-encoding Renilla luciferase (5 ng/well phRG-TK; Promega), together with empty vector (pcDNA3.1 from Invitrogen Cat. N. V79020) and cDNA encoding human membrane CD14 (3 ng/well) and human or murine TLR4 and MD2 (3 ng/well) were mixed with jetPEI (Polyplus transfection Cat.N. 101-10N) and incubated with cells according to the manufacturer’s instructions.
After treatment supernatants were discarded, cells were washed with PBS and lysed with passive lysis buffer (Promega Cat.N. E1941). Luciferase and Renilla activity on cell lysates were quantified on a BioTek Synergy HT microplate reader using home-made luciferase reagent (20 mM Tricine, 2.67 mM MgSO4·7H2O, 0.265 mM (MgCO3)4Mg(OH)2·5H2O, 0.1 mM EDTA, 33.3 mM DTT, 530 μM ATP, 270 μM Acetyl Coenzyme A (Lithium salt), 470 μM luciferin (Biosynth), pH 7.8, diluted two times in water before use), or coelenterazine (Biosynth) dissolved in ethanol at 1 mg/mL and diluted 500 times in PBS before use as previously described. Firefly and Renilla luciferase activity on cell lysates were normalized, and data were expressed as fold induction as compared to unstimulated conditions.
The first signaling event of these pathways is NF-κB activation through TLR4 activation. To investigate how the individual CD14, TLR4, and MD2 proteins contribute to the responses of cells to CL, we used the HEK transfection model where we can control which protein (including from different species) may be added to the cells and their contribution to CL activation of Nf-κB [21, 30, 31]. We transfected HEK293 cells with human or murine CD14 and MD2 with or without TLR4 and incubated them with saturated CLs for 6 h (Fig. 4a). All three saturated CLs activated murine TLR4. By contrast, only C16:0 and C18:0 activated the human receptor. To further confirm the role of TLR4, we compared TNF-α secretion induced by C14:0 CL in wild-type (WT) or TLR4 knock out (TLR4 KO) immortalized BMDMs. Both LPS and C14:0 CL induced TNF-α secretion in WT but not in TLR4-KO BMDMs (Fig. 4b). TLR4-KO BMDMs were normally responsive to TLR2 ligand Pam3CSK4 (data not shown).
Fig. 4 Saturated CLs are TLR4 agonists. a HEK293 cells were transfected with plasmids encoding murine TLR4, MD2, and CD14 (mTLR4), human TLR4, MD2, and CD14 (hTLR4) or with empty pcDNA3.1 plasmid, MD2 and CD14 (w/o TLR) together with a luciferase reporter plasmid dependent on NF-κB activation and a constitutively active reporter vector-encoding renilla luciferase. Two days after transfection, cells were incubated for 6 h with medium alone (Ctrl) or the indicated amount of CLs or LPS. Luciferase and renilla were quantified in cell lysate, normalized and reported here as fold induction as compared to control. Unpaired t test: differences compared to the control are not significant if p > 0.05(no symbol); *p ≤ 0.005. b WT and TLR4-KO iBMDM cells were incubated overnight with medium (c), LPS or C14:0 CL. For each condition, mTNF-α was measured by ELISA assay. Unpaired t test: differences with respect to the control are not significant if p > 0.05(no symbol); *p ≤ 0.0001. Each bar represents the mean + standard deviation of three biological replicates (n = 3). […]

[2] = tested on: immortalized BMDMs; experiment: TNF-α secretion in immortalized BMDMs (WT or TLR4-KO) incubated with CL or LPS; format: cell-based, murine; conditions: overnight; for TNF-α secretion: CL alone, immortalized BMDM
Protocol: Immortalized BMDM were seeded the day before the experiment at 5 × 10^5 cells/mL in 48-well plates (500 μL/well).
After stimulation, supernatants were collected, centrifuged, and assayed for cytokine secretion, while cells were assayed for viability.
TNF-α and IP-10 were quantified in cell supernatants using DuoSet ELISA kits from R&D Systems and human IL-1β using Instant ELISA™ Kit from Invitrogen, according to the manufacturer’s instructions. Absorbance was read with a BioTek Synergy HT Microplate Readers.
Fig. 3 Saturated but not unsaturated CLs have pro-inflammatory properties. a RAW-Blue™ cells were incubated overnight with the indicated amount of CL or LPS, supernatants were collected, and NF-κB activation quantified via Quanti-Blue™ test and reported here as fold induction as compared to control. Unpaired t test: differences with respect to the control (Ctrl) are not significant if p > 0.05 (no symbol); *p ≤ 0.0007. b Immortalized BMDM cells were incubated overnight with the indicated amount of CL or LPS; supernatants were collected and TNF-α quantified via ELISA assay. c, d Primary human monocytes were incubated overnight with the indicated amount of CL or LPS with or without the NLRP3 inhibitor MCC950, supernatants were collected, and TNF-α and IL-1β were quantified via ELISA assay. Graphs are representative of experiments from six different donors. Unpaired t test: differences with respect to the control (Ctrl) are not significant if p > 0.05 (no symbol); *p ≤ 0.021. Each bar represents the mean + standard deviation of three biological replicates (n = 3). Graphs are representative of at least three independent experiments
Fig. 4 Saturated CLs are TLR4 agonists. a HEK293 cells were transfected with plasmids encoding murine TLR4, MD2, and CD14 (mTLR4), human TLR4, MD2, and CD14 (hTLR4) or with empty pcDNA3.1 plasmid, MD2 and CD14 (w/o TLR) together with a luciferase reporter plasmid dependent on NF-κB activation and a constitutively active reporter vector-encoding renilla luciferase. Two days after transfection, cells were incubated for 6 h with medium alone (Ctrl) or the indicated amount of CLs or LPS. Luciferase and renilla were quantified in cell lysate, normalized and reported here as fold induction as compared to control. Unpaired t test: differences compared to the control are not significant if p > 0.05(no symbol); *p ≤ 0.005. b WT and TLR4-KO iBMDM cells were incubated overnight with medium (c), LPS or C14:0 CL. For each condition, mTNF-α was measured by ELISA assay. Unpaired t test: differences with respect to the control are not significant if p > 0.05(no symbol); *p ≤ 0.0001. Each bar represents the mean + standard deviation of three biological replicates (n = 3). Graphs are representative of at least three independent experiments

Row | activation of human TLR4 (NF-κB) [1] | NF-κB induction in HEK293 cells transfected with TLR4 in the absence of CD14 or MD2 ([1]; hTLR4 without CD14 or without MD2, 6 h) | Structure (SMILES) | TNF-α secretion [2] | TNF-α secretion in WT iBMDMs ([2]; wild-type)
1 | activated | not induced | CCCCCCCCCCCCCCCCCC(=O)OC[C@H](COP(=O)(O)OCC(O)COP(=O)(O)OC[C@@H](COC(=O)CCCCCCCCCCCCCCCCC)OC(=O)CCCCCCCCCCCCCCCCC)OC(=O)CCCCCCCCCCCCCCCCC (stereo partly drawn) [C18:0 CL] | induced | –
2 | not | – | CCCCCCCCCCCCCC(=O)OC[C@H](COP(=O)(O)OCC(O)COP(=O)(O)OC[C@@H](COC(=O)CCCCCCCCCCCCC)OC(=O)CCCCCCCCCCCCC)OC(=O)CCCCCCCCCCCCC (stereo partly drawn) [C14:0 CL] | induced | induced
